# In patent US6897208B2, “Benzimidazoles” (Aventis Pharmaceuticals Inc., priority 2001, dated 2005):
# Target: T1, human KDR enzyme (Homo sapiens, UniProt P35968)
# T1 construct: The cytoplasmic domain of human KDR enzyme is cloned in the form of a GST fusion; GST; made in house; host or cells: SF21 insect cells (baculovirus, pFastBac)
# Assay: Phosphorylation of PLCγ substrate by the enzyme KDR in vitro (flashplate technique)
# Format: biochemical
# Settings: read-out: IC50 (μM) on inhibition of the phosphorylation of PLCγ by KDR
# Protocol: 1. Inhibitory Effects of Compounds on KDR
# The inhibitory effect of the compounds is determined in a test of phosphorylation of a substrate by the enzyme KDR in vitro by the flasplate technique (96-well plate, NEN).
# The cytoplasmic domain of human KDR enzyme is cloned in the form of a GST fusion into the baculovirus expression vector pFastBac. The protein is expressed in the SF21 cells and purified to about 60% homogeneity.
# The kinase activity of KDR is measured in 20 mM MOPS, 10 mM MgCl2, 10 mM MnCl2, 1 mM DTT, 2.5 mM EGTA, 10 mM β glycerophosphate, pH 7.2 in the presence of 10 mM MgCl2, 100 μM Na3VO4, 1 mM NaF. 10 μl of the compound are added to 70 μl of kinase buffer containing 100 ng of KDR enzyme at 4° C. The reaction is initiated by adding 20 μl of solution containing 2 μg of substrate (fragment SH2-SH3 of PLCγ expressed in the form of a GST fusion protein), 2 μCi γ33P[ATP] and 2 μM cold ATP. After incubating for 1 hour at 37° C., the reaction is quenched by adding 1 volume (100 μl) of 200 mM EDTA. The incubation buffer is removed and the wells are washed three times with 300 μl of PBS. The radioactivity is measured in each well using a Top Count NXT instrument (Packard).
# Background noise is determined by measuring the radioactivity in wells in quadruplet containing radioactive ATP and the substrate alone.
# An activity control is measured in wells in quadruplet containing all the reagents (γ33P-[ATP], KDR and the substrate PLCγ) and in the absence of compound.
# The inhibition of the KDR activity with the compound of the invention is expressed as a percentage of inhibition of the control activity determined in the absence of compound.
# The compound SU5614 (Calbiochem) (1 μM) is included in each plate as inhibition control.
# The IC50 values for the compounds are calculated by plotting the dose-response curves. The IC50 corresponds to the concentration of compound that induces a 50% inhibition of the kinase activity.
# T1 sequence (P35968 786-1356 limits assumed): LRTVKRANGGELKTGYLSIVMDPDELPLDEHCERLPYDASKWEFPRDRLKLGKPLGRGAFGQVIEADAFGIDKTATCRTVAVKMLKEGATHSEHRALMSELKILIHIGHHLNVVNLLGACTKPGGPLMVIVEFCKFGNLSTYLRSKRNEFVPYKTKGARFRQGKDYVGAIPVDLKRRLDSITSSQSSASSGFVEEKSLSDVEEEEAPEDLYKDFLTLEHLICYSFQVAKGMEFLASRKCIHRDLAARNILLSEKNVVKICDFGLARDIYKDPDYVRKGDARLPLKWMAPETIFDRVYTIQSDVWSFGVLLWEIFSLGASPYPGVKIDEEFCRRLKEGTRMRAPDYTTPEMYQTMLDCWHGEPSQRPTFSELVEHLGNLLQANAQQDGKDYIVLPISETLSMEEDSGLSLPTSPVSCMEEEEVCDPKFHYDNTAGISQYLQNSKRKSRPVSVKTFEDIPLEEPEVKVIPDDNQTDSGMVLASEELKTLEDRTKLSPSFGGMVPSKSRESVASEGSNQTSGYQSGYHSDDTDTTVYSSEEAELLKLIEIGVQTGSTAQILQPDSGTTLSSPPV
row,Molecule,IC50
1,2-(1H-Indazol-3-yl)-1H-benzimidazole-5-carboxylic acid N-pyrrolidinoamide [Example 9],0.35 µM
2,2-(1H-Indazol-3-yl)-1H-benzimidazole-5-carboxylic acid N-morpholinoamide [Example 7],0.72 µM
3,2-(1H-Indazol-3-yl)-1H-benzimidazole-5-carboxylic acid N-(N′-methyl-piperazino)amide [Example 8],0.67 µM
4,2-(1H-Indazol-3-yl)-1H-benzimidazole-5-carboxylic acid N-(2-furfuryl)amide [Example 12],0.16 µM

# System: not given
# Assay: not given
# Settings: not given
row,Molecule,melting point
1,"CSc1cc(-c2nc3ccccc3[nH]2)no1 [Example 238, 2-(5-Methylsulfanyl-isoxazol-3-yl)-1H-benzoimidazole]",179 to 181 °C
2,"CCOc1cc(-c2nc3ccccc3[nH]2)n[nH]1 [Example 237, 2-(5-Ethoxy-1H-pyrazol-3-yl)-1H-benzoimidazole]",217 to 219.5 °C
3,"CSc1cc(-c2nc3ccccc3[nH]2)n[nH]1 [Example 240, (Benzoimidazol-2-yl)-5-methylthio-3-pyrazole]",242 °C
4,"Cc1cc(-c2nc3ccccc3[nH]2)n[nH]1 [Example 236, 2-(5-Methyl-1H-pyrazol-3-yl)-1H-benzoimidazole]",322 to 324 °C
5,"COc1cc2nc(-c3n[nH]cc3NC(=O)C3CC3)[nH]c2cc1Cl [Example 258(a), Cyclopropanecarboxylic acid [3-(6-chloro-5-methoxy-1H-benzoimidazol-2-yl)-1H-pyrazol-4-yl]-amide]",225 to 226 °C
